Measured values as given in patent US20050112123A1, “Methods of treating proteinuria” (priority 2003, published 2005).

How the values were obtained:
Assay type in all cases: cell-based
[1] = test system: cultured rat podocytes; assay: Cell morphology by scanning electron microscopy, cultured rat podocytes
Protocol: (§1) Exposure ofpodocvtes to ATRA. Rat podocytes, mouse podocytes, and growth permissive HSMP were plated at a concentration of 15,000 cell/cm^2 in standard media and allowed to adhere overnight.
Cell morphology was carefully examined under light microscopy on an inverted scope. Cellular morphology was also examined by scanning electron microscopy on adherent cells fixed in half-strength Karnovsky's solution.

[2] = test system: primary mouse podocytes; assay: Western blot analysis of nephrin and podocin, primary mouse podocytes; conditions: primary mouse cultures, FIG. 2
Protocol: (§2) Experiments were also performed on podocytes derived from C57/bl mice. Glomeruli were sieved and prepared as previously described. […] 61:40-50. Podocytes were grown on collagen 1 coated plates with MGEC-media containing 5% fetal bovine serum (FBS: Summit biotechnology, Ft. Collins, Colo., USA), penicillin (100 U/ml), streptomycin (100 μg/ml), and glutamine (2 mmol/L; all Irvine Scientific, Santa Ana, Calif., USA) at 37° C. in 95% air/5% CO2. Podocytes were identified by previously described criteria (Shankland et al. (1999) supra) and by confirming the presence of podocyte specific proteins—including WT-1, nephrin, podocin, and ezrin—by immunostaining.
as §1

[3] = test system: mouse podocytes; assay: MTT cell proliferation assay, mouse podocytes; conditions: at higher concentrations of ATRA than required with rat podocytes
Protocol: as §2, §1

## CC1=C(/C=C/C(C)=C/C=C/C(C)=C/C(=O)O)C(C)(C)CCC1 [ATRA, all-trans retinoic acid]
[1]; 1 μM ATRA
  process formation (scanning electron microscopy): resulted in the presence of processes
[1]; Ten 1 μM ATRA
  process formation (scanning electron microscopy): marked increase in the number and length of processes
[2]; 1 μM ATRA
  nephrin protein level (Western blot): increased the protein levels
  podocin protein level (Western blot): increased the protein levels
[2]; 5 μM ATRA
  nephrin protein level (Western blot): increased the protein levels
  podocin protein level (Western blot): increased the protein levels
[3]
  MTT absorbance: significantly reduced MTT absorbance
